# Assays:
# MCF7 [1] = test: Cytotoxicity against human MCF7 cells assessed as growth inhibition at 10 uM after 48 hrs by sulforhodamine B assay; assay type: functional; conditions: read-out: GI
# MCF7 [2] = test: Antiproliferative activity against human MCF7 cells assessed as inhibition of cell growth incubated for 48 hrs by MTT assay; assay type: functional, cell-based; conditions: MCF7, 48 h
# MCF-10A = test: Cytotoxicity against human MCF10A cells assessed as inhibition of cell growth incubated for 48 hrs by MTT assay; assay type: cell-based
# [3] = Selectivity index, ratio of IC50 for human MCF-10A cells to IC50 for human MCF7 cells; assay type: toxicity; conditions: MCF-10A cells versus MCF7 cells, read-out: Ratio IC50
# [4] = target: Phosphatidylinositol 4,5-bisphosphate 3-kinase catalytic subunit alpha isoform (Homo sapiens, UniProt P42336); test: Inhibition of PI3Kalpha (unknown origin) using PIP2 as substrate preincubated for 10 mins followed by substrate addition and measured after 1 hr by ELISA
# Chain of Phosphatidylinositol 4,5-bisphosphate 3-kinase catalytic subunit alpha isoform (P42336 whole entry, canonical isoform): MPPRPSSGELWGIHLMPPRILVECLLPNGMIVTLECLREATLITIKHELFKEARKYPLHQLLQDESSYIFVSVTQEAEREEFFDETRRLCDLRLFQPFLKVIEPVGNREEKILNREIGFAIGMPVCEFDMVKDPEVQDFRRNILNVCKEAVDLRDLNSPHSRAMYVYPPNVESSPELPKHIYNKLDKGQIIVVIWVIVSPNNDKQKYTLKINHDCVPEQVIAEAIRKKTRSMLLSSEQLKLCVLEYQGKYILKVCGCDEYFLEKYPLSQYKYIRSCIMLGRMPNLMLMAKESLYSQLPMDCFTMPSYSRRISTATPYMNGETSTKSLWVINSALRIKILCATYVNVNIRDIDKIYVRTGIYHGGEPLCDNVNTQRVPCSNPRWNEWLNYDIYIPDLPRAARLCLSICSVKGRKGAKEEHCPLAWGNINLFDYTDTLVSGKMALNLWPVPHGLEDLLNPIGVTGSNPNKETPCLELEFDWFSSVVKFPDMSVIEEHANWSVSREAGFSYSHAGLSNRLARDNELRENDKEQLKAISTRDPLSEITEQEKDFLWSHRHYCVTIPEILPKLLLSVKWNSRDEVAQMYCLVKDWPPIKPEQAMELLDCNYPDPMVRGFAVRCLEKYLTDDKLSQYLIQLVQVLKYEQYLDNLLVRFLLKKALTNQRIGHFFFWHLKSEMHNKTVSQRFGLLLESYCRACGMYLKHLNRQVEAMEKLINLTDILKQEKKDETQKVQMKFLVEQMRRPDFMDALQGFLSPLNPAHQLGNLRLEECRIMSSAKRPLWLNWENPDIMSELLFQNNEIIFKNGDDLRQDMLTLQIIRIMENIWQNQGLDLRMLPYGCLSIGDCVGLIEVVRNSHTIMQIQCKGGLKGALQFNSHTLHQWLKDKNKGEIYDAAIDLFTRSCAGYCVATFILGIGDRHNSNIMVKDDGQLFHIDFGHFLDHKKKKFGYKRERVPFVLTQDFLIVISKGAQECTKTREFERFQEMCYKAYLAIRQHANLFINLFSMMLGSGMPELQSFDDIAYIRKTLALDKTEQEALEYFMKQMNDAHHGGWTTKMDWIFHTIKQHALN
# MCF7 [5] = test: Induction of cell cycle arrest in human MCF7 cells assessed as accumulation of cells at G phase at IC50 concentration by Propidium iodide staining based flow cytometric analysis (reference value: 1.76%); assay type: functional
# MCF7 [6] = test: Induction of cell cycle arrest in human MCF7 cells assessed as accumulation of cells at G1 phase at IC50 concentration by Propidium iodide staining based flow cytometric analysis (reference value: 61.45%); assay type: functional
# MCF7 [7] = test: Induction of cell cycle arrest in human MCF7 cells assessed as accumulation of cells at G2/M phase at IC50 concentration by Propidium iodide staining based flow cytometric analysis (reference value: 10.94%); assay type: functional
# MCF7 [8] = test: Induction of cell cycle arrest in human MCF7 cells assessed as accumulation of cells at S phase at IC50 concentration by Propidium iodide staining based flow cytometric analysis (reference value: 27.61%); assay type: functional
# MCF7 [9] = test: Induction of apoptosis in human MCF7 cells assessed as early apoptotic cells at 0.72 uM after 48 hrs by annexin V-FITC/propidium iodide staining based flow cytometric analysis (reference value: 0.36%); assay type: functional
# MCF7 [10] = test: Induction of apoptosis in human MCF7 cells assessed as late apoptotic cells at 0.72 uM after 48 hrs by annexin V-FITC/propidium iodide staining based flow cytometric analysis (reference value: 0.14%); assay type: functional
# MCF7 [11] = test: Induction of apoptosis in human MCF7 cells assessed as necrotic cells at 0.72 uM after 48 hrs by annexin V-FITC/propidium iodide staining based flow cytometric analysis (reference value: 1.26%); assay type: functional
# [12] = target: Phosphatidylinositol 4,5-bisphosphate 3-kinase catalytic subunit beta isoform (Homo sapiens, UniProt P42338); test: Inhibition of PI3Kbeta (unknown origin) using PIP2 as substrate preincubated for 10 mins followed by substrate addition and measured after 1 hr by ELISA
# Chain of Phosphatidylinositol 4,5-bisphosphate 3-kinase catalytic subunit beta isoform (P42338 whole entry, canonical isoform): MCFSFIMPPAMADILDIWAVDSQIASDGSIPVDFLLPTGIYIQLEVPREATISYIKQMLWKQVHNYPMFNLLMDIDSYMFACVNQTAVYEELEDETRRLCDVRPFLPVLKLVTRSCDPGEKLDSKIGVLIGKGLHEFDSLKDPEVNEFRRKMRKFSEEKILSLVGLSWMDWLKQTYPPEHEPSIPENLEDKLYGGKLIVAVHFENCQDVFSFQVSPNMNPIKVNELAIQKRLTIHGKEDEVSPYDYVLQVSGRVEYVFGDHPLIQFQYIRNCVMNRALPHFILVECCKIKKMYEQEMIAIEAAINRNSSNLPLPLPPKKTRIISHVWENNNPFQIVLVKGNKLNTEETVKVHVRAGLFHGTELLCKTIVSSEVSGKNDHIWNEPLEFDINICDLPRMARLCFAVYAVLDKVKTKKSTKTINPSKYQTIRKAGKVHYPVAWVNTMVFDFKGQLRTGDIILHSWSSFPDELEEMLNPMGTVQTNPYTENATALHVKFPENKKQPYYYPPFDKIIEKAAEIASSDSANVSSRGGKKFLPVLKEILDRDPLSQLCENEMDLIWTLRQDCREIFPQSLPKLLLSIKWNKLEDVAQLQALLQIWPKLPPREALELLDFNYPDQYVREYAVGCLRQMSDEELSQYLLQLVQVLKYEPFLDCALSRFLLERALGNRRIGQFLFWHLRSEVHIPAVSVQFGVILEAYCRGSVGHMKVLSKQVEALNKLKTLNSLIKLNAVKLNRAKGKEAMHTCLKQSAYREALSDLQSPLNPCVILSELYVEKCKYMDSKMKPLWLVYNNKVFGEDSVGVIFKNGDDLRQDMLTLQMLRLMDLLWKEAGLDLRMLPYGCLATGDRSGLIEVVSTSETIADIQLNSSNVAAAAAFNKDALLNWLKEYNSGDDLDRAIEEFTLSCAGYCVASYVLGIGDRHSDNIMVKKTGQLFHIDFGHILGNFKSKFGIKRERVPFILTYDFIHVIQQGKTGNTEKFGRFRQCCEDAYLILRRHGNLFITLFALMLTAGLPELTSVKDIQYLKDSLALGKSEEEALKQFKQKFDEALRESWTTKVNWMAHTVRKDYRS
# [13] = target: T1, Phosphatidylinositol 4,5-bisphosphate 3-kinase catalytic subunit delta isoform (Homo sapiens, UniProt O00329); test: Inhibition of PI3Kdelta (unknown origin) using PIP2 as substrate preincubated for 10 mins followed by substrate addition and measured after 1 hr by ELISA
# T1 sequence (O00329 whole entry): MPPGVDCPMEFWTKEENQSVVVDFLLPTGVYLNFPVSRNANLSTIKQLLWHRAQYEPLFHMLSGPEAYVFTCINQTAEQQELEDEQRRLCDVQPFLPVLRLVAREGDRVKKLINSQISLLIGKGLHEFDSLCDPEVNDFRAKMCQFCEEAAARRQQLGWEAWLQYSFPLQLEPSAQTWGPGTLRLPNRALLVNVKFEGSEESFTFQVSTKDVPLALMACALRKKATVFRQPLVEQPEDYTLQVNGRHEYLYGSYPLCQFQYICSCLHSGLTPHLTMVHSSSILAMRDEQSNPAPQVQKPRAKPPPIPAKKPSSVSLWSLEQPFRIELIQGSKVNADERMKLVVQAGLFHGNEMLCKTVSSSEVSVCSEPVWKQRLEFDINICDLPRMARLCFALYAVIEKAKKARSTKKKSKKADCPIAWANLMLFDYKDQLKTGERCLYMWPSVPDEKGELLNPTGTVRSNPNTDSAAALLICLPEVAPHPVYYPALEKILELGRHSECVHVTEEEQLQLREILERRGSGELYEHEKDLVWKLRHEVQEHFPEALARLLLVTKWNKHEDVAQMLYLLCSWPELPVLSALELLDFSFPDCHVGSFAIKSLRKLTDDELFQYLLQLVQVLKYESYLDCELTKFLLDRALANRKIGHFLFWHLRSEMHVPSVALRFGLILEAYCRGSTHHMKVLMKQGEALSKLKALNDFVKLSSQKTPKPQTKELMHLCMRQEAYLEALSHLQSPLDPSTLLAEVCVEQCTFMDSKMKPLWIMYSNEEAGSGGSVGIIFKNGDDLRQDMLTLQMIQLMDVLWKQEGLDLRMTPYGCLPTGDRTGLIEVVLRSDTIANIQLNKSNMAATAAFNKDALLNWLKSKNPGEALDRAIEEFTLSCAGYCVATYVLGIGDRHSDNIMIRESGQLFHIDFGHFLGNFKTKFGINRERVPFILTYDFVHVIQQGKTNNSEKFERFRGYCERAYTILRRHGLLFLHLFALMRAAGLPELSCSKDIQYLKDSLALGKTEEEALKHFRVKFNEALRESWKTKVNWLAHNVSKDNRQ
# CCRF-CEM = test: Cytotoxicity against human CCRF-CEM cells assessed as growth inhibition at 10 uM after 48 hrs by sulforhodamine B assay; assay type: functional; conditions: read-out: GI
# HOP-62 = test: Cytotoxicity against human HOP-62 cells assessed as growth inhibition at 10 uM after 48 hrs by sulforhodamine B assay; assay type: functional; conditions: read-out: GI
# HOP-92 = test: Cytotoxicity against human HOP-92 cells assessed as growth inhibition at 10 uM after 48 hrs by sulforhodamine B assay; assay type: functional; conditions: read-out: GI
# NCI-H522 = test: Cytotoxicity against human NCI-H522 cells assessed as growth inhibition at 10 uM after 48 hrs by sulforhodamine B assay; assay type: functional; conditions: read-out: GI
# HCT-116 = test: Cytotoxicity against human HCT-116 cells assessed as growth inhibition at 10 uM after 48 hrs by sulforhodamine B assay; assay type: functional; conditions: read-out: GI
# SF-268 = test: Cytotoxicity against human SF-268 cells assessed as growth inhibition at 10 uM after 48 hrs by sulforhodamine B assay; assay type: functional; conditions: read-out: GI
# SF-295 = test: Cytotoxicity against human SF-295 cells assessed as growth inhibition at 10 uM after 48 hrs by sulforhodamine B assay; assay type: functional; conditions: read-out: GI
# SF-539 = test: Cytotoxicity against human SF-539 cells assessed as growth inhibition at 10 uM after 48 hrs by sulforhodamine B assay; assay type: functional; conditions: read-out: GI
# SNB-19 = test: Cytotoxicity against human SNB-19 cells assessed as growth inhibition at 10 uM after 48 hrs by sulforhodamine B assay; assay type: functional; conditions: read-out: GI
# SNB-75 = test: Cytotoxicity against human SNB-75 cells assessed as growth inhibition at 10 uM after 48 hrs by sulforhodamine B assay; assay type: functional; conditions: read-out: GI
# U-251 = test: Cytotoxicity against human U-251 cells assessed as growth inhibition at 10 uM after 48 hrs by sulforhodamine B assay; assay type: functional; conditions: read-out: GI
# SK-MEL-2 = test: Cytotoxicity against human SK-MEL-2 cells assessed as growth inhibition at 10 uM after 48 hrs by sulforhodamine B assay; assay type: functional; conditions: read-out: GI
# UACC-62 = test: Cytotoxicity against human UACC-62 cells assessed as growth inhibition at 10 uM after 48 hrs by sulforhodamine B assay; assay type: functional; conditions: read-out: GI
# SK-OV-3 = test: Cytotoxicity against human SK-OV-3 cells assessed as growth inhibition at 10 uM after 48 hrs by sulforhodamine B assay; assay type: functional; conditions: read-out: GI
# 786-0 = test: Cytotoxicity against human 786-0 cells assessed as growth inhibition at 10 uM after 48 hrs by sulforhodamine B assay; assay type: functional; conditions: read-out: GI
# A498 = test: Cytotoxicity against human A498 cells assessed as growth inhibition at 10 uM after 48 hrs by sulforhodamine B assay; assay type: functional; conditions: read-out: GI
# ACHN = test: Cytotoxicity against human ACHN cells assessed as growth inhibition at 10 uM after 48 hrs by sulforhodamine B assay; assay type: functional; conditions: read-out: GI
# CAKI-1 = test: Cytotoxicity against human CAKI-1 cells assessed as growth inhibition at 10 uM after 48 hrs by sulforhodamine B assay; assay type: functional; conditions: read-out: GI
# RXF 393 = test: Cytotoxicity against human RXF 393 cells assessed as growth inhibition at 10 uM after 48 hrs by sulforhodamine B assay; assay type: functional; conditions: read-out: GI
# MDA-MB-231 = test: Cytotoxicity against human MDA-MB-231 cells assessed as growth inhibition at 10 uM after 48 hrs by sulforhodamine B assay; assay type: functional; conditions: read-out: GI
# [14] = Cytotoxicity against human Hs 578T cells assessed as growth inhibition at 10 uM after 48 hrs by sulforhodamine B assay; assay type: functional; conditions: read-out: GI
smiles,measurement,setting,value
O=S(=O)(Oc1ccc(/C=N/N=c2\scc(-c3ccccc3)n2-c2ccccc2)cc1)C(F)(F)C(F)(F)C(F)(F)C(F)(F)F,inhibition of growth at 10 µM,MCF7 [1],65.5%
same,IC50,MCF7 [2],720 nM
same,IC50,MCF-10A,28.2 µM
same,selectivity ratio,[3],39.2
same,IC50,[4],5.8 µM
same,Activity,MCF7 [5],42.38%
same,Activity,MCF7 [6],49.27%
same,Activity,MCF7 [7],7.61%
same,Activity,MCF7 [8],43.12%
same,Activity,MCF7 [9],6.18%
same,Activity,MCF7 [10],21.88%
same,Activity,MCF7 [11],14.32%
same,IC50,[12],2300 nM
same,IC50,[13],7.9 µM
COC(=O)/C=C1\S/C(=N\N=C\c2ccc(OS(=O)(=O)C(F)(F)C(F)(F)C(F)(F)C(F)(F)C(F)(F)C(F)(F)C(F)(F)C(F)(F)F)cc2)N(c2ccccc2)C1=O,inhibition of growth at 10 µM,CCRF-CEM,22.1%
same,inhibition of growth at 10 µM,HOP-62,27%
same,inhibition of growth at 10 µM,HOP-92,25.1%
same,inhibition of growth at 10 µM,NCI-H522,22.1%
same,inhibition of growth at 10 µM,HCT-116,10.5%
same,inhibition of growth at 10 µM,SF-268,19.3%
same,inhibition of growth at 10 µM,SF-295,22%
same,inhibition of growth at 10 µM,SF-539,12.1%
same,inhibition of growth at 10 µM,SNB-19,36.3%
same,inhibition of growth at 10 µM,SNB-75,37.8%
same,inhibition of growth at 10 µM,U-251,36.2%
same,inhibition of growth at 10 µM,SK-MEL-2,16.9%
same,inhibition of growth at 10 µM,UACC-62,13.5%
same,inhibition of growth at 10 µM,SK-OV-3,14.1%
same,inhibition of growth at 10 µM,786-0,26.6%
same,inhibition of growth at 10 µM,A498,12.9%
same,inhibition of growth at 10 µM,ACHN,11.6%
same,inhibition of growth at 10 µM,CAKI-1,20%
same,inhibition of growth at 10 µM,RXF 393,39.7%
same,inhibition of growth at 10 µM,MCF7 [1],11.2%
same,inhibition of growth at 10 µM,MDA-MB-231,15.2%
same,inhibition of growth at 10 µM,[14],34.1%

# Source: ChEMBL document CHEMBL5055672, “Design, Synthesis, Biological Evaluation, and Computational Studies of Novel Fluorinated Candidates as PI3K Inhibitors: Targeting Fluorophilic Binding Sites” (J Med Chem, 2021)
